Assay results: US4400534A, “Analgesic and anti-inflammatory agents” (Sankyo Company, Limited, priority 1980, dated 1983)

Assays:
[1] = test system: prostaglandin-biosynthesis in 3T6 cells; experiment: Inhibition of prostaglandin-biosynthesis in cultured cells (3T6 cells from mouse fibroblasts); format: cell-based; details: for IC50: Mus musculus, Fibroblast, 3T6 cells, 2 hours contact, then arachidonic acid 5 μg/ml, 1 hour, prostaglandin E2 by radioimmunoassay, read-out: Inhibition of PG-biosynthesis enzyme activity, Culture cells I50
Protocol: 3T6 cells from mouse fibroblasts were used as the cultured cells.
About six hundred thousand 3T6 cells were cultured in a plastics Petri dish (35 mm inner diameter) at 37° C. for 48 hours using a minimum-requirement medium, Darbecco (Trade Mark). After culturing, the cells were separated, washed, and then contacted with the same medium but containing the compound under test. After contacting for 2 hours, the medium was separated off and the cells washed. The medium containing 5 μg/ml of arachidonic acid and the test compound were added. Culturing was allowed to continue for 1 hour, and then the concentration of the prostaglandin E2 in the medium was assayed by radioimmunoassay.

[2] = target: T1, microsome prostaglandin-biosynthesis enzyme (Bos taurus, UniProt O62664); experiment: Inhibition of PG-biosynthesis enzyme activity, bovine seminal vesicle microsome test; format: biochemical; details: for IC50: bovine seminal vesicle microsome 1mg/ml, 14C-arachidonic acid 10 μM, pH 7.6, 30° C., 10 minutes, prostaglandin E2 measured, read-out: Inhibition of PG-biosynthesis enzyme activity, Bovine seminal vesicle microsome I50
T1 construct: microsome prostaglandin-biosynthesis enzyme (1mg/ml) fractionated from bovine seminal vesicles; from tissue; host or cells: bovine seminal vesicles (microsomes)
T1 sequence (O62664 25-600): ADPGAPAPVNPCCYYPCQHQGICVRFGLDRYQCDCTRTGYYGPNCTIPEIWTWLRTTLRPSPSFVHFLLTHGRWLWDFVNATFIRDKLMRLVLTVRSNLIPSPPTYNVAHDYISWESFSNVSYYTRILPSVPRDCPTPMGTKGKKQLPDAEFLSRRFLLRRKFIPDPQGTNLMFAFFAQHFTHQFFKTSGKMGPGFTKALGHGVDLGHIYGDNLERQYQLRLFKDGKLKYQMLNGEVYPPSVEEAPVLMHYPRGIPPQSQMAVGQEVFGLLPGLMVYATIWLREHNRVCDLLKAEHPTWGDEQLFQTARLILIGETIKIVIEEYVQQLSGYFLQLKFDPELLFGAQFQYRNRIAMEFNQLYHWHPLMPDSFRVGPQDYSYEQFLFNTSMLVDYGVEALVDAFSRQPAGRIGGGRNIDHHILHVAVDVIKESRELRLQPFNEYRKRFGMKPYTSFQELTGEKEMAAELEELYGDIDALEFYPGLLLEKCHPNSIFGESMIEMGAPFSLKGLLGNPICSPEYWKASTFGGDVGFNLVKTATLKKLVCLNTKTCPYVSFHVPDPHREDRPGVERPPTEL
Protocol: Microsome tests were conducted according to the methods of E Takeguchi, E Kohno, C J Sih: Biochemistry 10, 2372 (1971), "Preparation of bovine seminal vesicle" and of R J Flower, H S Cheung, D W Cushman: Prostaglandins 4, 325 (1973), "Pharmacological action system."
The compounds under test were added to a system comprising microsome prostaglandin-biosynthesis enzyme (1mg/ml) fractionated from bovine seminal vesicles, glutathione (2 mM), epinephrine (1 mM) and trisaminomethane-hydrochloric acid buffer solution pH 7.6 (0.1 M). The mixture was left to stand at 30° C. for 5 minutes and commercially available ^14 C-arachidonic acid (10 μM, 50-60 nCi) was added. The resultant solution was maintained at 30° C. for 10 minutes and reaction then stopped by addition of 0.1 N hydrochloric acid. After extraction of the reaction mixture, the extract was separated by thin layer chromatography on silica gel to give the prostaglandin which was produced. The main product, prostaglandin E2, was measured using a liquid scintilation counter in accordance with the method of L Levine et al: Journal of Biological Chemistry (246, 6782 (1971). The inhibitory activities were assayed by the radioactivity ratio of the sample to a blank.

`COc1ccc2c(c1)c(CC(=O)O)c(C)n2C(=O)c1ccc(Cl)cc1` [IM, indomethacin, reference compound] was tested, and the IC50 [1] was 0.34 µM.
With `C[C@H](C(=O)O)c1ccc(CC2CCCC2O)cc1` (stereo partly shown) [II + III] the IC50 [2] was 13 µM.
`C[C@H](C(=O)O)c1ccc(CC2CCCC2O)cc1` (stereo partly drawn) [I, (2S)-2-[4-(2-hydroxycyclopentan-1-ylmethyl)phenyl]propionic acid] showed an IC50 [2] of 72 µM.
`C[C@H](C(=O)O)c1ccc(C[C@H]2CCC[C@@H]2O)cc1` [II, (2S)-2-{4-[(1R,2S)-2-hydroxycyclopentan-1-ylmethyl]phenyl}propionic acid] was tested, and the “inhibition of prostaglandin-biosynthesis enzyme activity (in words)” value [2] was “more active than the compound (I)”, the IC50 [2] was 9 µM and the IC50 [1] was 0.25 µM. The “activity compared to indomethacin (in words)” value ([1]; cultured cells test, called in vivo) was “better activity in the compound (II) compared to indomethacin”.
